Measurements as given in patent publication US10444227B2, “Neural networks formed from cells derived from pluripotent stem cells” (FUJIFILM Cellular Dynamics, Inc., priority 2014, dated 2019).
“Also recorded” adds a separate entry of the source.

Test system: iCell® DopaNeuron cultures
Test: Excitability pharmacology on network bursting, multi-electrode array (MEA) recording
Assay type: cell-based, human
Settings: FIG. 11
Description: The following methods may be used to culture neural cells on a Mestro Multielectrode Array (MEA). iCell® Neurons are thawed and plated into a 48-well MEA plate pre-coated with […] Polyethyleneimine (PEI; Sigma) solution. On day 1 post-plating, 100% of spent medium is replaced with Neurobasal-A medium (NBA; Life Technologies) +10% KnockOut Serum Replacement (KSR; Life Technologies). On day 5 post-plating, 50% of spent medium is replaced with NBA +10% KSR. On day 8 post-plating, baseline activity is recorded, cells are treated with compounds, and the activity is subsequently recorded.
Data analysis and acquisition may be performed using AxIS Software (Axion Integrated Studio, Axion BioSystems). At or after day 8 post-plating, the neuronal preparation may be suitable for data acquisition. Data acquisition can include a pre-application recording (baseline), a compound application recording, followed by a post-application recording (dose). Electrical activity may be acquired using the AxIS Software. The CDlneuronconfig.datastream file can ensure the appropriate data acquisition settings are loaded into the AxIS Software.
In these experiments, iCell® DopaNeurons, iCell® Neurons, and iCell® Astrocytes were obtained from Cellular Dynamics International, Inc. (Madison, Wis.), mixed and cultured on MEA plates as described in Example 1. Cells were cultured in BrainPhys media (Bardy et al., 2015) obtained from the Salk Institute (La Jolla, Calif.).
Two examples of excitability pharmacology, THIP (top) and L-655,708 (bottom), on iCell® DopaNeuron cultures are shown in FIG. 11. THIP activates tonic inhibition, while L-655,708 decreases tonic inhibition.

For `CCOC(=O)c1ncn2c1[C@@H]1CCCN1C(=O)c1cc(OC)ccc1-2` [L-655,708], the “'after-quiet' following network burst” value was “abolished”, the “continuous rumbling of activity” value was “inducing a continuous rumble of activity that dominated activity; also recorded: inducing a continuous rumbling of activity” and the network burst intensity was “neither pharmacological agent altered network burst intensity”. The network synchrony was “de-synchronized the network” and the post-bursting behaviors was “both altered post-bursting behaviors”.

With `Oc1noc2c1CCNC2` [THIP] the network burst intensity was “neither pharmacological agent altered network burst intensity”, the “post-burst rumbling time (duration of post-burst rumble)” value was “shortened” and the post-bursting behaviors was “both altered post-bursting behaviors”. The “time (duration) of the entire burst” value was “shortened the time of the entire burst; also recorded: shortened the durations of the entire burst”.
